For this assay, the target named is T1, Histone-arginine methyltransferase CARM1 (Homo sapiens, UniProt Q86X55).
T1 sequence (Q86X55 whole entry): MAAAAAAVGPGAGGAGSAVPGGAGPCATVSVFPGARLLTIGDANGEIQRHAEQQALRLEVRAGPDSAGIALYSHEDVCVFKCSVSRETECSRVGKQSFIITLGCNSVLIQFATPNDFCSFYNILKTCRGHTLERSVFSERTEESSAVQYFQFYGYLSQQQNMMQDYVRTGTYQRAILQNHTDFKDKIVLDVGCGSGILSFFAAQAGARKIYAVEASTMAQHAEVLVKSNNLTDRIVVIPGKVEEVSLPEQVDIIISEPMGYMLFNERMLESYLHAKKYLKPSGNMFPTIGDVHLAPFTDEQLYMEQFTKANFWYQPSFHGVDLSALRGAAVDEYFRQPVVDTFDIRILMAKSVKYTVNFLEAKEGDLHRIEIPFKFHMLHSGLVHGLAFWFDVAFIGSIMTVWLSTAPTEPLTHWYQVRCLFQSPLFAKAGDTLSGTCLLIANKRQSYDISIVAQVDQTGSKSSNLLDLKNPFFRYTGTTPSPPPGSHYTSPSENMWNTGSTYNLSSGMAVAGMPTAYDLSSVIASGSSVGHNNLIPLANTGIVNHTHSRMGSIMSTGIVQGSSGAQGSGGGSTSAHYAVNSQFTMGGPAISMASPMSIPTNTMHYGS
Put plainly: Enzyme Assay. How it is done:
The assays were all performed in a buffer consisting of 20 mM Bicine (pH=7.6), 1 mM TCEP, 0.005% BSG, and 0.002% Tween 20, prepared on the day of use. […] DMSO (1 ul) was added to Columns 11, 12, 23, 24, rows A-H for the maximum signal control and 1 ul of SAH, a known product and inhibitor of CARM1, was added to columns 11, 12, 23, 24, rows I-P for the minimum signal control. A cocktail (40 ul) containing the CARM1 enzyme was added by Multidrop Combi. The compounds were allowed to incubate with CARM1 for 30 min at room temperature, then a cocktail (10 ul) containing 3H-SAM and peptide was added to initiate the reaction (final volume=51 ul). […] The assays were stopped by the addition of non-radiolabeled SAM (10 ul) to a final concentration of 300 uM, which dilutes the 3H-SAM to a level where its incorporation into the peptide substrate is no longer detectable. 50 ul of the reaction in the 384-well polypropylene plate was then transferred to a 384-well Flashplate and the biotinylated peptides were allowed to bind to the streptavidin surface for at least 1 hour before being washed once with 0.1% Tween20 in a Biotek ELx405 plate washer.

Structures are written as SMILES.

As to `CCN1CCC(Nc2nc(-c3cc(OC[C@H](O)CNC)ccc3Cl)nc(-c3c(C)noc3C)c2C)C(F)(F)C1` (stereo partly specified) [US10633389, Example 291-3], the IC50 (usually the point on the concentration scale where inhibition reaches its midpoint) is under 100 nM.

In turn, `CNC[C@@H](O)COc1ccc(Cl)c(-c2nc(NC3CCN(C4CC4)CC3(F)F)c(C)c(-c3c(C)noc3C)n2)c1` (stereo partly specified) [US10633389, Example 292-3] returned an IC50 of under 100 nM.

Take `CNCC(O)COc1cccc(-c2nc(N[C@@H]3CCOC3)c(C)c(N3CCC[C@H]4CN(Cc5ccccc5)C[C@H]43)n2)c1` (stereo partly specified) [US10633389, Example 378-1a]: the IC50 was under 100 nM.

Turning to `CNCC(O)COc1cccc(-c2nc(N[C@@H]3CCOC3)c(C)c(N3CCC(n4c(C)nnc4C)CC3)n2)c1` (stereo partly specified) [US10633389, Example 390-1a], the IC50 is under 100 nM.

As for `CNCC(O)COc1cccc(-c2nc(N[C@@H]3CCOC3)c(C)c(-c3ccc4nccn4c3)n2)c1` (stereo partly specified) [US10633389, Example 445-1a], the IC50 is under 100 nM.

The compound `CCS(=O)(=O)n1cc(-c2cc(N(C)C3CCOCC3)nc(-c3cccc(OCC(O)CNC)c3)n2)c2cncnc21` (stereo unspecified) [US10633389, Example 484-1a] showed an IC50 of under 100 nM.

Values taken from BindingDB's records for patent US10633389 (Epizyme, Inc., 2020).
